Paper PMC11149885 (PLOS ONE, 2024)
Where two headings read alike, the source gives them in different places.

How the values were obtained:
FGFR1 = target: T1, FGFR1 (Homo sapiens, UniProt P11362); assay: HotSpot kinase screen; type: biochemical; settings: 10μM ATP
T1 construct: purchased Reaction Biology Corporation (contract assay)

PDGFRβ = target: T2, PDGFRβ (Homo sapiens, UniProt P09619); assay: HotSpot kinase screen; type: biochemical; settings: 10μM ATP
T2 construct: purchased Reaction Biology Corporation (contract assay)

[1] = tested on: VEGF-A–induced sprouting of HUVECs; assay: HUVEC spheroid sprouting assay; type: cell-based, human; settings: for cumulative sprout length per spheroid (CSL), mean: 25 ng/mL VEGF-165, 24 hours
Description: The three TKI compounds were tested by Reaction Biology Europe (Freiburg, Germany) in the spheroid-based cellular angiogenesis assay to determine their effect on VEGF-A–induced sprouting of HUVECs. Primary HUVECs from pooled donors at passage 3 to 4 (PromoCell, Heidelberg, Germany) were grown in endothelial cell growth and basal medium (ECGM/ECBM, PromoCell). Test compounds were prepared as 100-fold concentrated stock solutions in DMSO and pre-diluted in basal medium. HUVECs were stimulated using 25 ng/mL VEGF-165 (Reaction Biology Europe, Freiburg, Germany) pre-diluted in basal medium.
Spheroids were prepared as described by pipetting 400 HUVECs in a hanging drop on plastic dishes to allow overnight spheroid aggregation. Fifty HUVEC spheroids were seeded in 0.9 mL of a collagen gel and pipetted into individual wells of a 24-well plate to allow polymerization. Test compounds and VEGF-165 were added after 30 minutes by pipetting 100 μL of a ten-fold concentrated solution onto the polymerized gel. Plates were incubated at 37°C for 24 hours, and cells were fixed by adding 4% paraformaldehyde (Roth, Karlsruhe, Germany). Sprouting intensity of HUVEC spheroids treated with the test samples was quantitated using an image analysis system to determine the cumulative sprout length (CSL) per spheroid. Images of single spheroids were captured using an inverted microscope and the digital imaging software NIS-Elements BR 3.0 (Nikon). Spheroid pictures were uploaded to Wimasis (www.wimasis.com) for image analysis. The CSL of each spheroid was determined using the imaging analysis tool WimSprout. The mean CSL of ten randomly selected spheroids was analyzed as an individual data point.

VEGFR2 = target: T3, VEGFR2 (Homo sapiens, UniProt P35968); assay: Ten-dose IC50 measurement; type: biochemical; settings: 10μM ATP
T3 construct: purchased Millipore Corporation (Dundee, Scotland) or Reaction Biology Corporation (contract assay)
T3 sequence (P35968 20-1356): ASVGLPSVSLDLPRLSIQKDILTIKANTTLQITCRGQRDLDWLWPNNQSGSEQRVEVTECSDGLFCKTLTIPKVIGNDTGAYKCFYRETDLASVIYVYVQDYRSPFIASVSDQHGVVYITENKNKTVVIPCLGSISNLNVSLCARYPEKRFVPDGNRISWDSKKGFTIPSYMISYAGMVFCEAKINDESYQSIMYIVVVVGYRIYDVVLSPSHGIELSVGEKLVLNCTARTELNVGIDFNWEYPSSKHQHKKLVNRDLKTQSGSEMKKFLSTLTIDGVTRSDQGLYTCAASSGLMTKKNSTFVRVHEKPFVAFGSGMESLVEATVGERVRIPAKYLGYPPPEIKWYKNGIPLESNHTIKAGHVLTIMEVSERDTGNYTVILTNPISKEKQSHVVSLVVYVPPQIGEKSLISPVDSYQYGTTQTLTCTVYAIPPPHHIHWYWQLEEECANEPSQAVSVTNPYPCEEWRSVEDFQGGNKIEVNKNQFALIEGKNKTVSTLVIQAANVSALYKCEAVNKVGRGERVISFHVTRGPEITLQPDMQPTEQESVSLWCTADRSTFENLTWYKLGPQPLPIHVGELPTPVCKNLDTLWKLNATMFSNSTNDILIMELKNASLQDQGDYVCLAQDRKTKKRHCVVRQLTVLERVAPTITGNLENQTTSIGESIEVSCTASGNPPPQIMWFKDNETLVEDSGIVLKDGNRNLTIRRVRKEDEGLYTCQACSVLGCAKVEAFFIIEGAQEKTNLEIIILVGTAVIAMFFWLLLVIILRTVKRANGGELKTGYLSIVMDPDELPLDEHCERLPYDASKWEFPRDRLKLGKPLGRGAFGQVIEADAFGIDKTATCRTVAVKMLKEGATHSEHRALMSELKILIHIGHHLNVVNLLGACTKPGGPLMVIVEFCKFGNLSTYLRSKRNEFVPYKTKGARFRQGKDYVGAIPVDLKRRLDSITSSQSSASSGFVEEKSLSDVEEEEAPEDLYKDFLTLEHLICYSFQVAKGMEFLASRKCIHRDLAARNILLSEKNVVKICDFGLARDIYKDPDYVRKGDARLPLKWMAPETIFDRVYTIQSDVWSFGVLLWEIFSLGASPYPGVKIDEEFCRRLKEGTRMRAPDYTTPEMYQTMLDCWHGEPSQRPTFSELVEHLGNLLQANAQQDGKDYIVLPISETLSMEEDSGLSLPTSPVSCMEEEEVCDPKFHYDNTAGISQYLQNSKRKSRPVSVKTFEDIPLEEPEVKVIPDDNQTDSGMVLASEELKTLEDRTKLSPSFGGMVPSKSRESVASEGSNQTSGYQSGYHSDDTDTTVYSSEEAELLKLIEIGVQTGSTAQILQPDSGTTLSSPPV

T1 sequence (P11362 22-822): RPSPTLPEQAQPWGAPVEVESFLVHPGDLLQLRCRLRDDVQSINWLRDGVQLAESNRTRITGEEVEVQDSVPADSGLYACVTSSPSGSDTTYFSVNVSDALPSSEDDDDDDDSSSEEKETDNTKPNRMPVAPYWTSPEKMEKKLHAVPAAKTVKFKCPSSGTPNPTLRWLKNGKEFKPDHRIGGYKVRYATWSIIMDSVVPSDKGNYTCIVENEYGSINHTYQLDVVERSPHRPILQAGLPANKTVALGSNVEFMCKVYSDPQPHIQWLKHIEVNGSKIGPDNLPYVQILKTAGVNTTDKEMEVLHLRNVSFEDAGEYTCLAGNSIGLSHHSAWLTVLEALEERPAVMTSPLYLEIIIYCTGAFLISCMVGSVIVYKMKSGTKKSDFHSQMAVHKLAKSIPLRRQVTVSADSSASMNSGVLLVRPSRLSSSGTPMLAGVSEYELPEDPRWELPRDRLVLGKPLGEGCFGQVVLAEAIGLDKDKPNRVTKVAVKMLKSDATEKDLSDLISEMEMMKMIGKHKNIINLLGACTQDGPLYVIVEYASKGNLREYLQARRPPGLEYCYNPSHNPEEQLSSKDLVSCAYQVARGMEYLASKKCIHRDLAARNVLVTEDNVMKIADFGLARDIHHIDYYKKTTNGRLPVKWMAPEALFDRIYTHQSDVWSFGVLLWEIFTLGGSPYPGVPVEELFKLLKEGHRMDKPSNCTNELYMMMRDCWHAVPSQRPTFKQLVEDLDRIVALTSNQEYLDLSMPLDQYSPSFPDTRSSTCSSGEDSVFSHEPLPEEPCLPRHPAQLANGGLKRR
T2 sequence (P09619 33-1106): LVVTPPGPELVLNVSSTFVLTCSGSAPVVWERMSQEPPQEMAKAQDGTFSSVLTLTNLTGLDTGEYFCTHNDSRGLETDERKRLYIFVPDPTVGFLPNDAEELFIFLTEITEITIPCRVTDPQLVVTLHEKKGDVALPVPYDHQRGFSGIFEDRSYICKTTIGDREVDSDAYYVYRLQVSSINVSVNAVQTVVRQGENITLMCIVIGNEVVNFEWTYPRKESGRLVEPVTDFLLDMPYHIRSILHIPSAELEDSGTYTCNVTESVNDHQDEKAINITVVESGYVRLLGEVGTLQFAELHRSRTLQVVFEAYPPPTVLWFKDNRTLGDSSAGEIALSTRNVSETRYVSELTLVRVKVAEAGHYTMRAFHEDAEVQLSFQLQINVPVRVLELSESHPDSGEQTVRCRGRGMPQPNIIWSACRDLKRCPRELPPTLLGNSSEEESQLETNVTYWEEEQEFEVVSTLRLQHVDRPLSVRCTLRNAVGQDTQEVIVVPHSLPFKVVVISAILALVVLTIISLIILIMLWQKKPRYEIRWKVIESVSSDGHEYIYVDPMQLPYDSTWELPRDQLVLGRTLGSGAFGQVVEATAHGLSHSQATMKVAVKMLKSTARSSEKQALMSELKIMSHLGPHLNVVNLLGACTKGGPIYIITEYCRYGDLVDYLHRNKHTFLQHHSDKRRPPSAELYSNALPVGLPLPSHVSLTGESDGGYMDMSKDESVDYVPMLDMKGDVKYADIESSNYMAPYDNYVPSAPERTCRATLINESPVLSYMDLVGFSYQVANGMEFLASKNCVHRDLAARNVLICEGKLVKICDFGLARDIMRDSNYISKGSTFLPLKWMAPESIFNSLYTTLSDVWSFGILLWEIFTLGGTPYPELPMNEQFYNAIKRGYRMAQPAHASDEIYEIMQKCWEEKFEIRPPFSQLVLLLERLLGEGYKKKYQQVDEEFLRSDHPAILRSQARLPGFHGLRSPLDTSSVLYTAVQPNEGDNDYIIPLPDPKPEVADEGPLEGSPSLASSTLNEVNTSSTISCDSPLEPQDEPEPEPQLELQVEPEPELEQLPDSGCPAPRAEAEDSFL

SMILES: Cc1[nH]c(/C=C2\C(=O)Nc3ccc(F)cc32)c(C)c1C(=O)N[C@H]1CCN(C(=O)N(C)C)C1 [Vorolanib]
- Avg % Inhibition FGFR1 (FGFR1; 1uM TKI): 28.53%
- Avg % Inhibition FGFR1 (FGFR1; 10uM TKI): 65.32%
- Avg % Inhibition PDGFRb (PDGFRβ; 1uM TKI): 83.57%
- Avg % Inhibition PDGFRb (PDGFRβ; 10uM TKI): 94.8%
- cumulative sprout length per spheroid (CSL), mean ([1]; 1.00E-05 M TKI): 144
- cumulative sprout length per spheroid (CSL), mean ([1]; 1.00E-06 M TKI): 242
- cumulative sprout length per spheroid (CSL), mean ([1]; 1.00E-07 M TKI): 455
- cumulative sprout length per spheroid (CSL), mean ([1]; 3.00E-06 M TKI): 269
- cumulative sprout length per spheroid (CSL), mean ([1]; 3.00E-07 M TKI): 241
- cumulative sprout length per spheroid (CSL), mean ([1]; 3.00E-08 M TKI): 992
- vessel sprouting (representative spheroid images) ([1]; highest test concentration of 1×10^–5M): zero vessel sprouting
- IC50 (VEGFR2; S1 Dataset, read-out: IC50 VEGFR2): 7.61e-08 M
- %Activity VEGFR2 (VEGFR2; 1.00E-05 M TKI): 7.53%
- %Activity VEGFR2 (VEGFR2; 1.11E-06 M TKI): 15.96%
- %Activity VEGFR2 (VEGFR2; 1.23E-07 M TKI): 39.66%
- %Activity VEGFR2 (VEGFR2; 1.37E-08 M TKI): 76.92%
- %Activity VEGFR2 (VEGFR2; 1.52E-09 M TKI): 90.70%
- %Activity VEGFR2 (VEGFR2; 3.33E-06 M TKI): 8.61%
- %Activity VEGFR2 (VEGFR2; 3.70E-07 M TKI): 24.16%
- %Activity VEGFR2 (VEGFR2; 4.12E-08 M TKI): 62.72%
- %Activity VEGFR2 (VEGFR2; 4.57E-09 M TKI): 90.18%
- %Activity VEGFR2 (VEGFR2; 5.08E-10 M TKI): 99.81%
- IC50 (VEGFR2; Fig 3A inset, unit inferred, plot axes in (M), read-out: Compound IC50 data for VEGFR-2: IC50): 7.61e-08 M
